These results are taken from patent US7538085B2, “Peptide deformylase inhibitors as novel antibiotics” (The Ohio State University Research Foundation, priority 2003, dated 2009).

SMILES strings stand for the structures. ≈ marks a conversion by molar mass, not a printed value. Read-outs that look alike come from different tables or passages of the source. A value given as a limit tells only on which side of the number the result lay.

The target of series [1] is T1, Co(II)-substituted E. coli PDF (Escherichia coli, UniProt P0A6K3).
T1 construct: made in house
T1 sequence (P0A6K3 whole entry): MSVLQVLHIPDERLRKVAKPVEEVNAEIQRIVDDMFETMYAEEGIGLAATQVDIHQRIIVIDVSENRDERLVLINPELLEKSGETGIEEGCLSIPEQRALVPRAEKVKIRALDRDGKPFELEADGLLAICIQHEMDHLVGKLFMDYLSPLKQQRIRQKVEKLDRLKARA
Description: PDF assay coupled to formate dehydrogenase. The class given is biochemical.

The next series deals with T2, MMP2 (Homo sapiens, UniProt P08253).
T2 sequence (P08253 110-660): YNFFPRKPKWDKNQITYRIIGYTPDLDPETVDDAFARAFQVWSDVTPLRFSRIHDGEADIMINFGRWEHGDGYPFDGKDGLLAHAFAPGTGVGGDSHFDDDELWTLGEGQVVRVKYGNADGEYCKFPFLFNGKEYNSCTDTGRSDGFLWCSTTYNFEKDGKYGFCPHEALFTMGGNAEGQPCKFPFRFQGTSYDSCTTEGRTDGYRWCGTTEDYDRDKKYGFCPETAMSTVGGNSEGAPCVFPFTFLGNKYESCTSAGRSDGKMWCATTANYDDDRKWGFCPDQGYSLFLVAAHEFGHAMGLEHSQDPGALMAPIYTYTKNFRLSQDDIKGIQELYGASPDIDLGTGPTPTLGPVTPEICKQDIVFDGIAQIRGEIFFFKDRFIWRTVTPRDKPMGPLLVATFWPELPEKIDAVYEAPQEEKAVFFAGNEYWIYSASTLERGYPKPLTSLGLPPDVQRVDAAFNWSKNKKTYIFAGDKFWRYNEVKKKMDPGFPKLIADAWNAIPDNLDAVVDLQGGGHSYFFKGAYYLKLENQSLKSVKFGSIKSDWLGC
The series is described as follows: Inhibition of human matrix metalloproteases. In kind it is biochemical. Particulars: read-out: percentage of MMP2 activity remaining; for remaining activity at 1 µM: inhibitor 1.0 μM; for remaining activity at 10 µM: inhibitor 10 μM. On the procedure: (§1) Inhibition of Metalloproteases (MMP) Several of the inhibitors were tested for inhibition of human matrix metalloproteases, which are often used as indicators of inhibitor selectivity (no inhibition of MMP is desired). Each inhibitor was tested at two different concentrations (1.0 and 10 μM). The values reported are the percentage of MMP activity remaining in the presence of added inhibitor.

A further series deals with MMP-9 (Homo sapiens, UniProt P14780). Description: Inhibition of human matrix metalloproteases. Particulars: read-out: percentage of MMP-9 activity remaining; for remaining activity at 1 µM: inhibitor 1.0 μM; for remaining activity at 10 µM: inhibitor 10 μM. In kind it is biochemical. As to the method:
as §1

The target of another series is T3, MMP-1 (Homo sapiens, UniProt P03956).
T3 sequence (P03956 100-469): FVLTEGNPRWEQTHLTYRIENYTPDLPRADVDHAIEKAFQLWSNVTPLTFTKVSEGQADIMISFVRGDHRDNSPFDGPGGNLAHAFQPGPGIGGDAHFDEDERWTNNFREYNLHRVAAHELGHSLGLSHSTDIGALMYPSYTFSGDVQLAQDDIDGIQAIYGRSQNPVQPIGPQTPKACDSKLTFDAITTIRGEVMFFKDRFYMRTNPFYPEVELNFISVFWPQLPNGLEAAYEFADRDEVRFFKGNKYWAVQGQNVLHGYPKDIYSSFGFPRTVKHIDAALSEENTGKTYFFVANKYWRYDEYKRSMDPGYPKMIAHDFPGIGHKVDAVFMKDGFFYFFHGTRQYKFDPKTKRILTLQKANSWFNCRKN
Description: Inhibition of human matrix metalloproteases. In kind it is biochemical. Particulars: read-out: percentage of MMP-1 activity remaining; for remaining activity at 1 µM: inhibitor 1.0 μM; for remaining activity at 10 µM: inhibitor 10 μM. As to the method:
as §1

In another series the target is MMP-3 (Homo sapiens, UniProt P08254). The series is described as follows: Inhibition of human matrix metalloproteases. The class given is biochemical. Particulars: read-out: percentage of MMP-3 activity remaining; for remaining activity at 1 µM: inhibitor 1.0 μM; for remaining activity at 10 µM: inhibitor 10 μM. As to the method: as §1
MMP-3, sequence (P08254 100-477): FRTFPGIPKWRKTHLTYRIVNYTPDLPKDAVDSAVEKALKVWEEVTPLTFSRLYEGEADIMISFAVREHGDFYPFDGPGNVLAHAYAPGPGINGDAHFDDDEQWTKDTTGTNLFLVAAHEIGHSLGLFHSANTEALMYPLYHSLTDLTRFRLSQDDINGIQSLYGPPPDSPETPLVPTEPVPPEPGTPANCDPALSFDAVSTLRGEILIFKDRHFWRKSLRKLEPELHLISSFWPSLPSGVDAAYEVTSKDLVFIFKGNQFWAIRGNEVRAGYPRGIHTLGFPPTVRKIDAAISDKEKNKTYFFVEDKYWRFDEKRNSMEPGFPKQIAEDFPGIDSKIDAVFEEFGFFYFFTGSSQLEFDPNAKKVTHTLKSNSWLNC
Another series relates to E. coli. Description: Antibacterial activity (cell growth, MIC). In kind it is cell-based. Particulars: Escherichia coli. On the procedure: (§2) FIG. 5 Inhibition of B. subtilis (A) and E. coli (B) cell growth by inhibitor 2. An overnight culture was diluted 1000-fold into 2 mL of fresh LB medium containing the specified concentrations of inhibitor 2 and incubated at 37° C. Cell densities were measured at the specified times on a UV-vis spectrophotometer.
(§3) The in vitro antibacterial activity of the cyclic inhibitor was tested against E. coli and Bacillus subtilis, the representative Gram-negative and Gram-positive bacteria, respectively.
(§4) Antimicrobial Susceptibility Testing. For Escherichia coli and Bacillus subtilis, cell growth was monitored on the Lambda-20 UV/Vis spectrophotometer at 600 nm. A single bacterial colony from a plate culture was grown overnight in LB media and was diluted 1000-fold into 2 mL of fresh growth medium containing 0-64 μg/mL of test agent in a 5-mL glass test tube shaken at a speed of 250 rpm. Cell growth (at 37° C.) was monitored for 0-600 min.
(§5) Antibacterial Activity of PDF Inhibitors Inhibitors 2-7E were tested against two or more bacterial strains for antibacterial activities.

In the next series the test system is B. subtilis. The series is described as follows: Antibacterial activity (cell growth, MIC). The class given is cell-based. Particulars: Bacillus subtilis, read-out: MIC. As to the method: as §2, §3, §4, §5
The next series has as its system E. faecalis (ATCC 29212). The series is described as follows: Antibacterial activity (MIC). In kind it is cell-based. Particulars: Enterococcus faecalis, ATCC29212. As to the method:
as §5

Series [2] deals with S. pneumoniae (ATCC 49619). Description: Antibacterial activity (MIC). The class given is cell-based. Particulars: Streptococcus pneumoniae, ATCC49619. On the procedure: as §5
Another series relates to S. aureus (ATCC 29213). The series is described as follows: Antibacterial activity (MIC). In kind it is cell-based. Particulars: Staphylococcus aureus, ATCC29213. On the procedure: as §5
In series [3] the test system is S. pneumoniae (ATCC 6303). The series is described as follows: Antibacterial activity (MIC). In kind it is cell-based. Particulars: Streptococcus pneumoniae, ATCC6303. On the procedure: as §5
The subject of series [4] is S. pneumoniae (ATCC 6301). Description: Antibacterial activity (MIC). The class given is cell-based. Particulars: Streptococcus pneumoniae, ATCC6301. As to the method: as §5
For series [5], the system named is H. influenzae (ATCC 31517). Description: Antibacterial activity (MIC). In kind it is cell-based. Particulars: Haemophilus influenzae, ATCC31517. On the procedure:
as §5

Series [6] deals with M. catarrhalis (ATCC 37054). The series is described as follows: Antibacterial activity (MIC). In kind it is cell-based. Particulars: Moraxella catarrhalis, ATCC37054. As to the method: as §5
A short description of series [7]: Stability of inhibitors in rat plasma. The class given is in vitro ADME. Particulars: 37° C., LC-MS. As to the method: FIG. 7 Comparison of the in vitro stability of PDF inhibitors 6 (cyclic) and 9 (acyclic) in rat plasma.
Stability of Inhibitors Inhibitors 6E and comparative compound 9 were chosen to test for the effect of cyclization on inhibitor stability. They both have an L-lysine as the P2′ residue and are expected to be sensitive to proteolytic degradation by trypsin-like enzymes. Both inhibitors were incubated in rat plasma at 37° C. and aliquots were withdrawn at various times and analyzed by LC-MS. […] Our attempts to identify the degradation products by mass spectrometry failed.

Series [8] deals with human matrix metalloproteases. Description: Inhibition of human matrix metalloproteases, overall statement. In kind it is biochemical. Particulars: MMP-1, MMP2, MMP-3, MMP-9; 1.0 and 10 μM. On the procedure: Inhibition of Metalloproteases (MMP) Several of the inhibitors were tested for inhibition of human matrix metalloproteases, which are often used as indicators of inhibitor selectivity (no inhibition of MMP is desired). Each inhibitor was tested at two different concentrations (1.0 and 10 μM). The values reported are the percentage of MMP activity remaining in the presence of added inhibitor. […] The acyclic inhibitors are flexible and can adopt different conformations to fit the active sites of both PDF and MMP's.

The mark [9] stands for this setting: formate dehydrogenase-coupled assay, 4 nM E. coli PDF, pH 7.0, read-out: K1 (apparent inhibition constant).

MMP-9, sequence (P14780 94-707): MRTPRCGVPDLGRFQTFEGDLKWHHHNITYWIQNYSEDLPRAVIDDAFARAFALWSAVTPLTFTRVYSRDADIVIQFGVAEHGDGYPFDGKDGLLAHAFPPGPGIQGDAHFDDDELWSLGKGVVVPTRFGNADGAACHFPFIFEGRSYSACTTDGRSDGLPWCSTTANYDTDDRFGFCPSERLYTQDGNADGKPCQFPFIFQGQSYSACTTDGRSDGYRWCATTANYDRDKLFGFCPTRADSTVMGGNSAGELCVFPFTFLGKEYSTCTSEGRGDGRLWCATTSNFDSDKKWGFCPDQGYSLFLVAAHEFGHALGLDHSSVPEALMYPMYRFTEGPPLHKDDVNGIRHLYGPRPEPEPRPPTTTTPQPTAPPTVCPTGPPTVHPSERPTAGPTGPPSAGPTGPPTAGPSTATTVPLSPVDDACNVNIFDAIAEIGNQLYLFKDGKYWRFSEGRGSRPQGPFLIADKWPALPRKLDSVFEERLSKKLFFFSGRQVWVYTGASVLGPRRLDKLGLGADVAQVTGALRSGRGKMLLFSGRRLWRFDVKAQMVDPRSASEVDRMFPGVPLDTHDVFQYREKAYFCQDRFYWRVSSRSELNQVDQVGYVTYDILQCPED

Take `CCCC[C@H](CN(O)C=O)C(=O)N[C@H](C(=O)N(C)C)C(C)(C)C` [BB-3497, reference compound]: the Ki in series [1] (setting [9]) was around 7 nM.

For orientation: remaining activity means the signal under treatment as a percentage of the control signal. As to `CC(C)(C)[C@@H]1NC(=O)[C@@H](CN(O)C=O)CCCCCCCNC1=O` [Compound 1E], the remaining activity at 1 µM on MMP2 was 90%; on MMP-9 it was 92%; on MMP-1, 100%; on MMP-3, 97%. The remaining activity at 10 µM on MMP2 was 85%; at MMP-9, 89%; at MMP-1 it was 99%; at MMP-3, 80%. The Ki in [1] (setting [9]) was determined as 14 ± 3 nM.

As for `CC(C)(C)[C@@H]1NC(=O)[C@@H](CN(O)C=O)CCCCCCCCCCNC1=O` [Compound 3E], the Ki in [1] (setting [9]) stood at 0.4 nM.

On to `CC(C)(C)[C@@H]1NC(=O)[C@@H](CN(O)C=O)CCCCCCCCCCCNC1=O` [Compound 4E], for which the Ki in [1] came to 0.22 nM. Also, the MIC against E. coli is above 24 µg/mL; with B. subtilis, around 0.2 µg/mL (≈ 0.503 µM).

In the case of `CC(C)(C)[C@@H]1NC(=O)[C@@H](CN(O)C=O)CCCCCCCCCCCCCCNC1=O` [Compound 5E], the remaining activity at 1 µM on MMP2 is 100%; on MMP-9, 96%; at MMP-1, 93%; at MMP-3, 97%. For the same compound, the remaining activity at 10 µM at MMP2 came to 100%; at MMP-9, 94%; on MMP-1 it was 92%; on MMP-3, 96%. In series [1], this compound came in with a Ki of 25 ± 6 nM. In addition, the MIC is above 24 µg/mL in the series with E. coli; around 16 µg/mL (≈ 36.4 µM) in the series on B. subtilis; above 32 µg/mL in the series on E. faecalis (ATCC 29212); 8 µg/mL (≈ 18.2 µM) in series [2]; above 32 µg/mL in the series on S. aureus (ATCC 29213); 4 µg/mL (≈ 9.1 µM) in series [3]. Besides, the figures for the MIC in series [4], in series [5] and in series [6] were 8 µg/mL (≈ 18.2 µM), above 32 µg/mL and below 0.031 µg/mL, respectively.

Consider `NCCCC[C@@H]1NC(=O)[C@@H](CN(O)C=O)CCCCCCCCCNC1=O` [Compound 6E], for which the Ki in series [1] worked out at 3 ± 1.3 nM. Moreover, the MIC against E. coli is 4 to 8 µg/mL (≈ 10.4 to 20.8 µM); with B. subtilis it was around 8 µg/mL (≈ 20.8 µM). Further, the “degradation (loss) in rat plasma after 5 h” value in [7] was “no detectable degradation”.

Consider `NCCCC[C@@H]1NC(=O)[C@@H](CN(O)C=O)CCCCCCCCCCCCCCNC1=O` [Compound 7E], for which the remaining activity at 1 µM at MMP2 was found to be 94%; at MMP-9, 96%; on MMP-1 it was 99%; on MMP-3, 100%. The remaining activity at 10 µM on MMP2 was determined as 85%; on MMP-9, 95%; at MMP-1, 93%; at MMP-3 it was 94%. For the same compound, the Ki in series [1] worked out at 36 ± 9 nM. The MIC against E. coli is above 32 µg/mL; with B. subtilis, above 32 µg/mL; against E. faecalis (ATCC 29212), 32 µg/mL (≈ 70.4 µM); in series [2], above 32 µg/mL; in the series on S. aureus (ATCC 29213), 32 µg/mL (≈ 70.4 µM); in [3], above 32 µg/mL. Besides, the values for the MIC in [4], in series [5] and in series [6] were above 32 µg/mL, 32 µg/mL (≈ 70.4 µM) and 1 µg/mL (≈ 2.2 µM), respectively.

As for `CC(=O)NCCCC[C@@H]1NC(=O)[C@@H](CN(O)C=O)CCCCCCCCCNC1=O` [Compound 8E], the remaining activity at 1 µM on MMP2 stood at 83%; on MMP-9, 92%; on MMP-1, 97%; at MMP-3, 100%. Also, the remaining activity at 10 µM on MMP2 turned out to be 80%; on MMP-9 it was 92%; at MMP-1, 87%; on MMP-3 it was 92%. The compound further gave a Ki in series [1] of 12 ± 4 nM.

For `CCCCCCNC(=O)[C@H](CCCCN)NC(=O)[C@H](CCCCC)CN(O)C=O` [Compound 9C, reference compound], the remaining activity at 1 µM at MMP2 came to 27%; at MMP-9, 39%; on MMP-1, 50%; on MMP-3, 19%. Also, the remaining activity at 10 µM on MMP2 worked out at 2%; at MMP-9, 6%; at MMP-1, 0%; at MMP-3, 1%. Moreover, the “inhibition of the MMPs (in words)” value in series [8] is recorded as “substantial inhibition of all of the MMP's”. Besides, in series [7], the “degradation (loss) in rat plasma after 5 h” value is recorded as “approximately 25%”.

As for `CCCC[C@H](CN(O)C=O)C(=O)N[C@@H](CCCCN)C(=O)Nc1ccccc1` [Compound 10C, reference compound], the remaining activity at 1 µM at MMP2 was determined as 66%; at MMP-9, 46%; on MMP-1, 50%; at MMP-3, 32%. Besides, the remaining activity at 10 µM at MMP2 turned out to be 45%; on MMP-9 it was 11%; on MMP-1, 3%; at MMP-3, 27%. In addition, the Ki in series [1] was determined as 18 ± 1 nM. Further, the “inhibition of the MMPs (in words)” value in [8] is recorded as “substantial inhibition of all of the MMP's”.
